Assay results as given in patent US9247759B2, “Identification of human T2R receptors that respond to bitter compounds that elicit the bitter taste in compositions, and the use thereof in assays to identify compounds that inhibit (block) bitter taste in compositions and use thereof” (SENOMYX, INC., priority 2007, dated 2016).
Where two headings read alike, the source gives them in different places.

Target: hT2R8 (Homo sapiens (Human), UniProt Q9NYW2)
Assay: hT2R8 antagonist high-throughput FLIPR assay, stable cell line with G16g44, agonist andrographolide
Format: cell-based
Summary of the method: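 HEK293 cells stably co-expressing hT2R8 and chimeric G16g44, read on FLIPR. Test compounds added together with andrographolide (200 μM), which drives the receptor to 70–80% of maximal activity; antagonism seen as reduced agonist response.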

[1] = read-out: IC50 on hT2R8 bitter receptor
[2] = table after Example 10-97, read-out: hT2R8 IC50

hT2R8, sequence (Q9NYW2 whole entry): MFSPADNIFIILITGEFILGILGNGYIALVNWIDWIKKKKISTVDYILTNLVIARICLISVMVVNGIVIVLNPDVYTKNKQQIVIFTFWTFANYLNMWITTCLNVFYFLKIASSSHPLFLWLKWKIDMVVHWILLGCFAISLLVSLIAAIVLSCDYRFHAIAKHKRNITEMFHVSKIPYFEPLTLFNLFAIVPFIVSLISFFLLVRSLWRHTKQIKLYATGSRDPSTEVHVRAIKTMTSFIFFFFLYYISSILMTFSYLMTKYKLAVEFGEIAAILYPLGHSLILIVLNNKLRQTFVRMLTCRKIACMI

| SMILES | IC50 [1] | IC50 [2] |
| --- | --- | --- |
| Cc1noc(C)c1Cn1cc(N2C(=O)CN(CCc3cccc4ccccc34)C2=O)cn1 [Example 10-80] | 1270 nM | 927 nM |
| Cc1noc(C)c1Cn1cc(N2CCN(Cc3ccccc3)C2=O)cn1 [Example 10-88, 1-benzyl-3-(1-((3,5-dimethylisoxazol-4-yl)methyl)-1H-pyrazol-4-yl)imidazolidin-2-One] | 710 nM | 1250 nM |
| COCn1c(=O)n(-c2cnn(Cc3c(C)noc3C)c2)c(=O)n1Cc1ccccc1 [Example 10-89, 1-benzyl-4-(1-((3,5-dimethylisoxazol-4-yl)methyl)-1H-pyrazol-4-yl)-2-(methoxymethyl)-1,2,4-triazolidine-3,5-dione] | 20 nM | 24 nM |
| CCn1c(=O)n(-c2cnn(Cc3c(C)noc3C)c2)c(=O)n1Cc1ccccc1 [Example 10-91, 1-benzyl-4-(1-((3,5-dimethylisoxazol-4-yl)methyl)-1H-pyrazol-4-yl)-2-ethyl-1,2,4-triazolidine-3,5-dione] | 40 nM | 41 nM |
| COCCn1c(=O)n(-c2cnn(Cc3c(C)noc3C)c2)c(=O)n1Cc1ccccc1 [Example 10-92, 1-benzyl-4-(1-((3,5-dimethylisoxazol-4-yl)methyl)-1H-pyrazol-4-yl)-2-(2-methoxyethyl)-1,2,4-triazolidine-3,5-dione] | 60 nM | 57 nM |
| Cc1noc(C)c1Cn1cc(N2C(=O)CN(CCCc3ccccc3)C2=O)cn1 [Example 10-94, 3-(1-((3,5-dimethylisoxazol-4-yl)methyl)-1H-pyrazol-4-yl)-1-(3-phenylpropyl)imidazolidine-2,4-dione] | 260 nM | 68 nM |
| CCCCn1c(=O)n(-c2cnn(Cc3c(C)noc3C)c2)c(=O)n1Cc1ccccc1 [Example 10-95] | 410 nM | 409 nM |
| Cc1noc(C)c1Cn1cc(N2C(=O)CN(Cc3cccc(CNC(=O)OC(C)(C)C)c3)C2=O)cn1 [Example 10-96, tert-butyl 3-((3-(1-((3,5-dimethylisoxazol-4-yl)methyl)-1H-pyrazol-4-yl)-2,4-dioxoimidazolidin-1-yl)methyl)benzylcarbamate] | 900 nM | 891 nM |
| Cc1noc(C)c1Cn1cc(N2C(=O)NC(CO)C2=O)cn1 (stereo not drawn) [Example 10-97, 3-(1-((3,5-dimethylisoxazol-4-yl)methyl)-1H-pyrazol-4-yl)-5-(hydroxymethyl)imidazolidine-2,4-dione] | 3000 nM |  |
| Cc1noc(C)c1Cn1cc(N2C(=O)N(Cc3cccc(O)c3)C3(CCC3)C2=O)cn1 [Example 12-4, 7-(1-((3,5-dimethylisoxazol-4-yl)methyl)-1H-pyrazol-4-yl)-5-(3-hydroxybenzyl)-5,7-diazaspiro[3.4]octane-6,8-dione] | 30 nM |  |
| Cc1noc(C)c1Cn1cc(N2C(=O)N(Cc3cccc(O)c3)C3(CCCC3)C2=O)cn1 [Example 12-5, 3-(1-((3,5-dimethylisoxazol-4-yl)methyl)-1H-pyrazol-4-yl)-1-(3-hydroxybenzyl)-1,3-diazaspiro[4.4]nonane-2,4-dione] | 70 nM |  |
| Cc1noc(C)c1Cn1cc(N2C(=O)[C@H](C)N(Cc3cccc(O)c3)C2=O)cn1 [Example 12-6, (S)-3-(1-((3,5-dimethylisoxazol-4-yl)methyl)-1H-pyrazol-4-yl)-1-(3-hydroxybenzyl)-5-methylimidazolidine-2,4-dione] | 20 nM |  |
| Cc1noc(C)c1Cn1cc(N2C(=O)[C@H](C(C)C)N(Cc3cccc(O)c3)C2=O)cn1 [Example 12-8, (S)-3-(1-((3,5-dimethylisoxazol-4-yl)methyl)-1H-pyrazol-4-yl)-1-(3-hydroxybenzyl)-5-isopropylimidazolidine-2,4-dione] | 650 nM |  |
| Cc1noc(C)c1Cn1cc(N2C(=O)[C@H](CO)N(Cc3cccc(O)c3)C2=O)cn1 [Example 12-9, (S)-3-(1-((3,5-dimethylisoxazol-4-yl)methyl)-1H-pyrazol-4-yl)-1-(3-hydroxybenzyl)-5-(hydroxymethyl)imidazolidine-2,4-dione] | 40 nM |  |

More lines, in order of falling IC50 [1], values ahead:

| IC50 [1] | IC50 [2] | SMILES |
| --- | --- | --- |
| 410 nM | 412 nM | Cc1noc(C)c1Cn1cc(N2C(=O)CN(CCc3ccc(O)cc3)C2=O)cn1 [Example 10-86, 3-(1-((3,5-dimethylisoxazol-4-yl)methyl)-1H-pyrazol-4-yl)-1-(4-hydroxyphenethyl)imidazolidine-2,4-dione] |
| 260 nM | 137 nM | COc1ccc(CCN2CC(=O)N(c3cnn(Cc4c(C)noc4C)c3)C2=O)cc1OC [Example 10-87, 1-(3,4-dimethoxyphenethyl)-3-(1-((3,5-dimethylisoxazol-4-yl)methyl)-1H-pyrazol-4-yl)imidazolidine-2,4-dione] |
| 250 nM | 248 nM | Cc1noc(C)c1Cn1cc(N2C(=O)CN(CCc3ccccc3Cl)C2=O)cn1 [Example 10-81, 1-(2-chlorophenethyl)-3-(1-((3,5-dimethylisoxazol-4-yl)methyl)-1H-pyrazol-4-yl)imidazolidine-2,4-dione] |
| 200 nM | 982 nM | Cc1noc(C)c1Cn1cc(N2C(=O)CN(CCc3cccc(Cl)c3)C2=O)cn1 [Example 10-82, 1-(3-chlorophenethyl)-3-(1-((3,5-dimethylisoxazol-4-yl)methyl)-1H-pyrazol-4-yl)imidazolidine-2,4-dione] |
| 160 nM | 158 nM | COc1cccc(CCN2CC(=O)N(c3cnn(Cc4c(C)noc4C)c3)C2=O)c1 [Example 10-85, 3-(1-((3,5-dimethylisoxazol-4-yl)methyl)-1H-pyrazol-4-yl)-1-(3-methoxyphenethyl)imidazolidine-2,4-dione] |
| 130 nM | 442 nM | Cc1noc(C)c1Cn1cc(N2C(=O)CN(CCc3ccccc3F)C2=O)cn1 [Example 10-83, 3-(1-((3,5-dimethylisoxazol-4-yl)methyl)-1H-pyrazol-4-yl)-1-(2-fluorophenethyl)imidazolidine-2,4-dione] |
| 130 nM |  | Cc1noc(C)c1Cn1cc(N2C(=O)N(Cc3cccc(O)c3)C(C)(CO)C2=O)cn1 (stereo not drawn) [Example 12-10, 3-(1-((3,5-dimethylisoxazol-4-yl)methyl)-1H-pyrazol-4-yl)-1-(3-hydroxybenzyl)-5-(hydroxymethyl)-5-methylimidazolidine-2,4-dione] |
| 60 nM | 62 nM | CCCn1c(=O)n(-c2cnn(Cc3c(C)noc3C)c2)c(=O)n1Cc1ccccc1 [Example 10-93, 1-benzyl-4-(1-((3,5-dimethylisoxazol-4-yl)methyl)-1H-pyrazol-4-yl)-2-propyl-1,2,4-triazolidine-3,5-dione] |
| 40 nM | 44 nM | COc1ccc(CCN2CC(=O)N(c3cnn(Cc4c(C)noc4C)c3)C2=O)cc1 [Example 10-79, 3-(1-((3,5-dimethylisoxazol-4-yl)methyl)-1H-pyrazol-4-yl)-1-(4-methoxyphenethyl)imidazolidine-2,4-dione] |
| 20 nM |  | Cc1noc(C)c1Cn1cc(N2C(=O)[C@@H](C)N(Cc3cccc(O)c3)C2=O)cn1 [Example 12-7, (R)-3-(1-((3,5-dimethylisoxazol-4-yl)methyl)-1H-pyrazol-4-yl)-1-(3-hydroxybenzyl)-5-methylimidazolidine-2,4-dione] |
| 10 nM | 27 nM | Cc1noc(C)c1Cn1cc(N2C(=O)CN(CCc3ccc(F)cc3)C2=O)cn1 [Example 10-84, 3-(1-((3,5-dimethylisoxazol-4-yl)methyl)-1H-pyrazol-4-yl)-1-(4-fluorophenethyl)imidazolidine-2,4-dione] |
